From PubChem BioAssay AID179 (DTP/NCI, 2004)
Structures can show the parent of a compound that is named as a salt. Active and inactive are the calls of the source.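 Rule for the calls: active = compounds giving half or more protection of infected cells from virus-caused growth loss, again on retest; inactive = the rest.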 Where a SMILES comes first, the peptide text is derived from it. [ ]: non-standard residue; d: D form. The star is where a group is joined. ξ: configuration not given here. ξF = NC(Cc1ccccc1)C(=O)O; Cbz = O=C(OCc1ccccc1)*; Tfa = O=C(C(F)(F)F)*

Test system: CEM cells HIV-1 protection, formazan growth assay
Assay: NCI AIDS Antiviral Assay
Conditions: for IC50: measured here: growth of uninfected CEM cells
Description: The ability of compounds to protect human CEM cells from HIV-1 infection is measured as a screen for new compounds capable of inhibiting the HIV virus. Five concentrations of drug were tested on uninfected and infected cells and cell growth was measured using a soluble formazan assay. […] Compounds that provided at least 50% protection were retested. Compounds that provided at least 50% protection on retest were listed as moderately active. Compounds that reproducibly provided 100% protection were listed as confirmed active. […] Note that the inability to provide protection could be due to toxicity.

SMILES	EC50 [µM]	IC50 [µM]	outcome
CC(=O)OCC1OC(n2c(-c3ccccc3)cc(-c3ccccc3)c(C#N)c2=O)C(OC(C)=O)C(OC(C)=O)C1OC(C)=O (stereo unspecified)	> 16.6	> 16.6	–
N#CC(CCN1CCC(Nc2ccccc2)(c2nnnn2C2CCCCC2)CC1)(c1ccccc1)c1ccccc1	> 200	> 200	–
CCOC(=O)C1Nc2ccccc2[C@H]2OCC[C@@H]12 (stereo partly specified)	> 525	> 525	–
C[C@H]1C=C2[C@@H]3CC(C)(C(=O)O)CC[C@]3(C)CC[C@]2(C)[C@]2(C)CC[C@H]3C(C)(C)[C@@H](OC(=O)c4cccc5c(=O)c6ccccc6[nH]c45)CC[C@]3(C)[C@@H]12 (stereo partly specified)	> 100	35.5	–
CCN(CC)CC.CCOc1ccc(NC(=O)N=C=[N-])cc1.[CH-]1CCCCC1.[CH-]1CCCCC1.[CH-]1CCCCC1.[Cl-].[Sn+4]	–	–	inactive
CC(C)(C)OC(=O)N/N=C(/N)Cc1ccccc1	> 200	> 200	–
O=c1[nH]c(=O)n(C2CC(O)C(CO)O2)cc1OCCCc1ccccc1 (stereo unspecified)	> 200	> 200	–
CC(/C=N\NC(=S)N(C)C)=N/NC(=S)N(C)C	> 2	0.347	–
CC(C)(C)[Si](C)(C)OCC1OC(n2ccc(=O)[nH]c2=O)C(O[Si](C)(C)C(C)(C)C)[C@]12N[C@H](C(N)=O)CS2 (stereo partly specified)	> 200	5.25	–
O=C(O)/C=C\CCCCCCCCC(=O)O	> 794	> 794	–
O=C(Nc1cc2c(=O)oc3ccccc3c2oc1=O)c1cccnc1	> 100	> 100	–
O=c1oc2ccccc2c2nc3cc(Cl)c(F)cc3cc12	> 25.1	> 25.1	–
Cc1nn(C(=O)c2ccc(Cl)cc2)c2c1C(c1ccc([N+](=O)[O-])cc1)SC(N)=N2 (stereo unspecified)	> 200	97.7	–
CCCCCCC(O)C/C=C/CCCCCC/C(C(=O)OC)=C(/O)C(=O)OCC (stereo unspecified)	> 83.2	> 83.2	–
CCC[CH2][Sn]([CH2]CCC)([O]N(C)C(=O)c1ccc(Br)cc1)[O]N(C)C(=O)c1ccc(Br)cc1	> 10.5	1.78	–
C[C@@H](c1ccccc1)n1c(N)c(-c2ccccn2)c2ccc([N+](=O)[O-])cc2c1=O	> 200	24	–
SCc1ccc(CS)s1	> 741	> 741	–
N#CC(c1ccccn1)c1nc2ccccc2[nH]1 (stereo unspecified)	> 8.51	> 8.51	–
COc1ccc(NC(=S)NNC(=O)c2cc(-c3ccccc3)nc3ccccc23)cc1	> 200	35.5	–
Cc1cccc(C)c1N1C(=O)C2c3[nH]c4ccccc4c3C3CCC(C(C)(C)C)CC3C2C1=O (stereo unspecified)	> 200	12.3	–
CCCCC1(NN=C2CCCCC2)C(=O)N(c2ccccc2)N(c2ccccc2)C1=O	> 200	102	–

SMILES	EC50 [µM]	IC50 [µM]	outcome
NC(=O)C(=CNc1nc(-c2ccc(Br)cc2)cs1)C(N)=O	> 200	135	–
Cc1cc(=O)n2nc(SCc3ccccc3)sc2n1	> 200	81.3	–
COc1ccc(NC(=O)CC(=O)NN)cc1	> 200	> 200	–
CCN(CC)CCn1ncc2c3c(=O)c4cccnc4n(CCN(CC)CC)c3ccc21	> 200	3.47	–
N#C/C=C\c1ccc(C#N)cc1	> 64.6	> 64.6	–
Nc1ccccc1-c1noc(=O)[nH]1	> 200	> 200	–
COc1ccc2c(c1OC)C(=O)c1cc(C(C)O)oc1C2=O (stereo unspecified)	–	–	inactive
CN1CCCc2cc(/C=C\c3ccnc4ccccc34)ccc21	0.0631	4.37	–
BrC(/C=N/Nc1nnc(-c2ccccc2)c(-c2ccccc2)n1)C(Br)c1ccccc1 (stereo unspecified)	> 13.5	> 13.5	–
C/C(=N\N=C(/C)C1CC(CC(=O)O)C1(C)C)C1CC(CC(=O)O)C1(C)C (stereo unspecified)	> 186	> 186	–
CC(=O)Nc1ccc(-c2nnc(SCC(=O)Nc3ccccc3C)o2)cc1	> 67.6	61.7	–
C[C@H]1ON2CCC[C@@H]2[C@@H]1C(=O)N1C2CC3CCC2(CS1(=O)=O)C3(C)C (stereo partly specified)	> 200	> 200	–
CCN1CCN(c2ccc(Nc3ccnc4ccc5nn(C)nc5c34)cc2)CC1	> 18.6	7.24	–
CCCCCCN1CCN(Cc2ccc(N(CC)CC)cc2)C(=O)C1=O	> 200	0.977	–
O=c1[nH]cc(NS(=O)(=O)O)c(=O)[nH]1	> 200	> 200	–
CCCCCCCCSC(=O)n1cc(F)c(=O)[nH]c1=O	> 61.7	> 61.7	–
Brc1cccc(C2ON=C(c3ccccc3)N2C23CC4CC(CC(C4)C2)C3)c1 (stereo unspecified)	> 200	> 200	–
O=C(CNc1nccs1)Nn1cnc2ccc(S(=O)(=O)Nc3nccs3)cc2c1=O	> 200	> 200	–
CCOC(=O)c1cnc2n(c1=O)[C@H]1CCCC[C@@H]1N2	> 200	> 200	–
COc1ccc(/C=C/C(=O)c2sc(-n3nc(-c4ccccc4)cc3-c3ccccc3)nc2C)cc1	> 11	> 11	–
Cc1cc(=O)oc2c1cc1ccc3cccc4ccc2c1c34	–	–	inactive

SMILES	EC50 [µM]	IC50 [µM]	outcome
Cc1cc(C)c(/C=N/NS(=O)(=O)c2ccccc2)c(C)c1	–	–	inactive
Cn1cnc([N+](=O)[O-])c1Sc1nnc(C(F)(F)F)n1C	> 813	4.27	–
Cc1cc(SCC(=O)c2ccccc2[N+](=O)[O-])cc(C)[o+]1	> 200	77.6	–
CCOC(=O)/C(=C\c1ccc2ccccc2c1)P(=O)(OCC)OCC	> 186	5.37	–
CC12CCC3C(CCC4=CC(OC5OC(CO)C(O)C(O)C5O)CCC43C=O)C1(O)CCC2c1ccc(=O)oc1 (stereo unspecified)	> 0.02	0.00316	–
C[C@H]1CC(=O)C[C@@H]2CC[C@@H]3[C@H](CC[C@]4(C)C(OC(=O)c5cccc6c(=O)c7ccccc7[nH]c56)CC[C@@H]34)[C@]21C (stereo partly specified)	> 200	22.4	–
CCC(C)C1NC(=O)C(N(C)C)Cc2cc(ccc2OC)/C=C/NC(=O)C(Cc2ccccc2)NC1=O (stereo unspecified)	> 35.5	> 35.5	–
CN(C)Cc1cc(/C=C/C(=O)c2ccc(Br)cc2)cc(CN(C)C)c1O	> 200	10.5	–
C=C1[C@H]2C[C@H]3[C@@H]4N5C[C@]6(C)CCCC47C6[C@H]5CC3([C@@H]1O)[C@H]7[C@H]2O	–	–	inactive
Cc1nc2ccccc2c(=O)n1-c1ccccc1	> 1050	631	–
O=C(O)CC(NC(=O)C(F)(F)F)C(=O)NC(Cc1ccc(O)cc1)C(=O)O (stereo not drawn) (Tfa-Asp-Tyr-OH; configuration not given here)	> 200	> 200	–
CSc1c(N(C)C)c(=O)c1=S	> 200	4.9	–
CC(C)=NNC(=S)NC12CC3CC(CC(C3)C1)C2	–	–	inactive
CSc1c(C(N)=O)c2c(N)ncnc2n1C1OC(CO)C(O)C1O (stereo unspecified)	> 2	1.02	–
C[C@@H]1O[C@@H](O[C@H]2CC[C@]3(C=O)[C@H]4CC[C@]5(C)[C@@H](c6ccc(=O)oc6)CC[C@]5(O)[C@@H]4CC[C@]3(O)C2)[C@H](O)[C@H](O)[C@H]1O[C@@H]1O[C@H](CO)[C@@H](O)[C@H](O)[C@H]1O	> 0.2	0.0038	–
O=C1NC2C(=O)N(Cc3ccccc3)C(=O)C2N1 (stereo unspecified)	> 29.5	> 29.5	–
CC(=O)OCc1ncccc1C(OC(C)=O)OC(C)=O	> 891	> 891	–
Cc1c(C)[n+](=O)c2ccc(/C=[N+](/[O-])CCO)cc2n1[O-]	–	–	inactive
CC1CCCc2c1n[nH]c2CC1CC(=O)NC(=O)C1 (stereo unspecified)	> 200	> 200	–
COc1cc2c(cc1O)C=NCC2	–	–	inactive
N#C/C(=C\c1ccccc1)c1cccc(I)c1	> 200	55	–

SMILES	EC50 [µM]	IC50 [µM]	outcome
COC(=O)[C@H]1C=C[C@@H](C)n2c(=O)c3cc4ccccc4cc3c(=O)n21	> 21.4	> 21.4	–
CSc1c(C(=O)Nc2ccc(Cl)cc2)c(N)[nH]c(=O)c1C#N	> 200	1.2	–
CCCN(CCCCC(NC(C)=O)C(=O)NCc1ccccc1)C(=O)NC (stereo unspecified)	> 661	> 661	–
O=C(NC1CCN(Cc2ccccc2)CC1)c1cccc(I)c1	> 200	33.9	–
NN=C(N)N	> 200	> 200	–
NP(N)(=O)NC(=O)c1ccc(F)cc1	> 200	> 200	–
COc1ccc(CCNC(=O)CCCCCO)cc1OC	> 200	195	–
CO[C@]12CCC(=O)N1C=Cc1c2[nH]c2ccccc12	–	–	inactive
COC(=O)c1ccc(C)cc1/C=C1\Cc2ccc(C)cc2C1=O	> 200	18.6	–
CCCCCCCCOCC(CO)OCCCCCCCC (stereo unspecified)	> 251	132	–
CCc1c(Cc2ccccc2)n(COCCSc2ccccc2)c(=O)[nH]c1=O	3.24	26.9	–
COc1cc(/C=C2/SC(c3ccccc3)N(c3cccc([N+](=O)[O-])c3)C2=O)cc(OC)c1OC (stereo unspecified)	> 200	107	–
Cc1ccc2c(n1)C(N1CCCCC1)=CC(=O)C2=O	–	–	inactive
Cc1cn(CCCCOC(=O)NC(CCCNC(N)=O)C(=O)O)c(=O)[nH]c1=O (stereo unspecified)	> 200	> 200	–
CCOC(=O)C12CCC(=O)C=C1[C@@H](C)C(=O)CC2 (stereo partly specified)	> 1000	363	–
O=C1c2ccccc2C(=O)c2sc(Nc3ccc([N+](=O)[O-])cc3)nc21	> 10.7	> 10.7	–
Nc1nonc1-c1noc(-c2nonc2N)[n+]1[O-]	> 200	12.3	–
CC(=O)N1CC[N+](C)(CCCCN2c3ccccc3Sc3cc(N=[N+]=[N-])ccc32)CC1	> 200	81.3	–
CCOC(=O)CNC(=O)C(Cc1ccccc1)NC(=O)OCc1ccccc1 (stereo unspecified) (Cbz-[ξF]-Gly-OEt)	> 200	191	–
Cc1ccc(S(=O)(=O)N/N=C/c2oc(-c3cccc([N+](=O)[O-])c3)c(-c3cccc([N+](=O)[O-])c3)c2[N+](=O)[O-])cc1	> 46.8	> 46.8	–
